Results taken from paper PMC12615753, “Glutathione as a taste modulator: molecular mechanisms of interaction with umami and sweet taste receptors” (Food Chemistry: Molecular Sciences, 2025).

Target: T1, hTAS1R1 A302W/rTAS1R3 (UniProt Q7RTX1+Q923K1, A302W)
T1 construct: UniProtKB number Q7RTX1–1); The cDNA coding region of rTAS1R3 was synthesized with optimized-codon usage for human expression; expressed in transfected cells; host or cells: HEK293T/17
T1 sequence (Q7RTX1 21-841 A302W): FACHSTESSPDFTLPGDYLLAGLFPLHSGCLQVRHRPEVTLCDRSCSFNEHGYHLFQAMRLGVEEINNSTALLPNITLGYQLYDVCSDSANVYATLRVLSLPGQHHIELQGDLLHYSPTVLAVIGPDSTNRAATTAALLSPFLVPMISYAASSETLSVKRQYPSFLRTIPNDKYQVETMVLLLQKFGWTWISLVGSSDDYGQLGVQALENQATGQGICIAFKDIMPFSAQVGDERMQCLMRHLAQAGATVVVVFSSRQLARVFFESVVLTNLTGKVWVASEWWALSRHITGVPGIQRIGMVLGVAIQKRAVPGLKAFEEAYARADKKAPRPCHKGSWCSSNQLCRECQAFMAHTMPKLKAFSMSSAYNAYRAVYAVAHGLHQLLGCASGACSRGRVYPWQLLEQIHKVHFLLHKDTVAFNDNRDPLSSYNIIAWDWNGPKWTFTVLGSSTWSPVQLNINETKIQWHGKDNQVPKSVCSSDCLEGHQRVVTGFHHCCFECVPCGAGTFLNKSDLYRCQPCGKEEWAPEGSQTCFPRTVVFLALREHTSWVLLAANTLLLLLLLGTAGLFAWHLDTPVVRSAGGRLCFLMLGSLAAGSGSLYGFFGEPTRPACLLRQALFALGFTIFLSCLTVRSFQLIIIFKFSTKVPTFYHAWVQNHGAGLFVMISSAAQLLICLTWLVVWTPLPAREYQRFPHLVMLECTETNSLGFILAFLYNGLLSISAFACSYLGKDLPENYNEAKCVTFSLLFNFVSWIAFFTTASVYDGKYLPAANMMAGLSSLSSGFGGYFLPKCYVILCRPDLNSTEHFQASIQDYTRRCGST
T1 sequence (Q923K1 21-858): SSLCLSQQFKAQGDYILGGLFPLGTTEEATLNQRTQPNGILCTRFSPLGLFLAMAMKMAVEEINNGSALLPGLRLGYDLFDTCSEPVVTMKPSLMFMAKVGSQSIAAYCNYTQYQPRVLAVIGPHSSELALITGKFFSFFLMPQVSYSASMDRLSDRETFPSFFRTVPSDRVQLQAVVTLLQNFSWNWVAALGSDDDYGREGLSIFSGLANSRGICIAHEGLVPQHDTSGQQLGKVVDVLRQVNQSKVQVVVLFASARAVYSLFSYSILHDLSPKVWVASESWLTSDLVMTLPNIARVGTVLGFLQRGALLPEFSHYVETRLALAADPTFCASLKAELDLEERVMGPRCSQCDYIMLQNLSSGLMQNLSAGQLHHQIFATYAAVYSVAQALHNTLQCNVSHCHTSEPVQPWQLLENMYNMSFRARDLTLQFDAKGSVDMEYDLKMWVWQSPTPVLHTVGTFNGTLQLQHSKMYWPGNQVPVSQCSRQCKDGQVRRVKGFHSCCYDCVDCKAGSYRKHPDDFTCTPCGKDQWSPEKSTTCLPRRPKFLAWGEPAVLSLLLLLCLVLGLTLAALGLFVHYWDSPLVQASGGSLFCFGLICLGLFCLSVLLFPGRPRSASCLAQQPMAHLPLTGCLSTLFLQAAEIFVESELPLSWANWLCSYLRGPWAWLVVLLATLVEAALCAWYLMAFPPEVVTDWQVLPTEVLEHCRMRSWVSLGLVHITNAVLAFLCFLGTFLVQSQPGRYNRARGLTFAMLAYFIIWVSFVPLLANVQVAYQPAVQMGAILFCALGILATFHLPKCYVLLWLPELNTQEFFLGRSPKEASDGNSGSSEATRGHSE
Assay: Calcium assay, hTAS1R1 mutant co-expressed with rTAS1R3
Assay type: cell-based, human, rat

Structure (SMILES): N[C@@H](CCC(=O)N[C@@H](CS)C(=O)NCC(=O)O)C(=O)O [GSH, γ-L-glutamyl-L-cysteinyl-glycine]
- EC50: 5.32 ± 2.54 mM
- Max ∆F/F0 (A302W, GSH): 0.09 ± 0.01
- R1 = mutant EC50/WT EC50 (A302W, GSH): 2.1

Structure (SMILES): N[C@@H](CCC(=O)O)C(=O)O [L-Glu, L-glutamic acid, reference compound]
- response to the agonist alone, vs WT (A302W): completely suppressed

Structure (SMILES): CCCC(CCC)NC(=O)c1ccc2c(c1)OCO2 [S807, N-(heptan-4-yl)benzo[d][1,3]dioxole-5-carboxamide, reference compound]
- response to the agonist alone, vs WT (A302W): strongly affected
